Assay results reported in patent US20010049393A1, “Methods for defining MYC target genes and uses thereof” (Whitehead Institute for Biomedical Research, priority 1999, published 2001).

What was measured:
MYC-ER [1] = assay: Cell cycle (S phase) entry after OHT treatment of MYC-ER transduced human fibroblasts; format: cell-based
Method: (§1) Amphotropic viral stocks were generated by co-transfection of pBabe-puro plasmid containing MYC-ER™ or Δ-MYC-ER™ (Littlewood, T. et al., 1995. Nucl. Acids Res. 23:1686-1690) together with Psi^−helper construct (Muller, A. et al., 1991. Mol. Cell. Biol. 11:1785-1792) in 293T cells. Subconfluent WI38 cells (ATCC cat #CCL75) grown in DMEM with 10% FCS were infected with 5 mL of viral supernatant on two consecutive days. The next day, cells were plated at ˜10^4cells/cm^2 in phenol-red free DME medium with 10% FCS, and selected in the presence of puromycin for pBABE vectors. Cells were grown to confluence, for seven to eight days, without media changes. Density arrested cells were induced with 200 nM OHT (4-hydroxy-tamoxifen) or serum starved (0.1% FCS) for 48 hours and then induced. Where specified, cells were exposed to cycloheximide (10 micrograms/mL) for 30 minutes prior to addition of OHT.
Treatment of the transduced cells with OHT, caused 20% of the cells to enter the cell cycle by 17 hours. In contrast, only 1-6% of, OHT-treated, non-MYC-ER expressing controls ever enter S phase. […]

MYC-ER [2] = assay: Northern blot of p21 transcript after OHT stimulation of MYC-ER; format: cell-based, human; settings: within two hours after OHT stimulation, MYC-ER fibroblasts
Method: as §1
Northern blots were performed according to standard procedures (Ausubel, F. et al., 1990. Current Protocols in Molecular Biology. Wiley Interscience, New York). For cyclin D2 and p21, complete cDNA was used as probes. For FKBP52, a PCR amplicon of bps 1215-1767 (accession number M88279) was used; for FABP5 (PA-FA-BP), bps 60-481 (M94856); for ODC1, bps 1198-1984 (X55362); for PPIF (hCyP3), bps 404-803 (M80254); and for EIF5A, bps 46-512 (U17969). […]

Substance: 4-hydroxytamoxifen [OHT]
- cells entering the cell cycle (MYC-ER [1]; MYC-ER transduced fibroblasts, by 17 hours after OHT): 20%
- cells entering S phase (MYC-ER [1]; OHT-treated, non-MYC-ER expressing controls): 1-6%
- levels of p21 (MYC-ER [2]): decreased
